Measurements as given in paper PMC9055851 (RSC Advances, 2020).

Molecular target: Aβ42 peptide (Homo sapiens, UniProt P05067)
Test: ThT fluorescence assay for inhibition of Aβ42 fibrillation
Format: biochemical

Chain of Aβ42 peptide (P05067 672-713): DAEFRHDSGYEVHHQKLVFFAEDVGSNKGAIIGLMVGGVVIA

`O=[N+]([O-])c1ccc(/N=N/c2ccc3nc(-c4ccccc4)c(I)c(-c4ccccc4)c3c2)cc1` [Compound 1d, (E)-3-Iodo-6-((4-nitrophenyl)diazenyl)-2,4-diphenylquinoline] was tested, and the “% inhibition for Aβ aggregation” value (Aβ42 25 μM, compounds 25 μM, PBS, 37 °C, 24 h) was 75.2 ± 3.0% and the inhibition at 25 µM (read-out: % inhibition for Aβ aggregation, Aβ42 25 μM, compounds 25 μM, PBS, 37 °C, 24 h) was ~75%.
